Test results from patent US20100152261A1 (MITSUBISHI TANABE PHARMA CORPORATION, priority 2005, published 2010).
Like-named read-outs stand apart in the source and are kept apart here.

Columns and labels:
muscarinic M3 receptor = target: T1, muscarinic M3 receptor (Cavia porcellus, UniProt H0W1Z3); test: Muscarinic M3 antagonistic action in isolated guinea pig trachea (carbachol-induced contraction, Schild method); format: cell-based; conditions: compound applied 15 minutes before carbachol
T1 construct: trachea was excised, and cut at every two tracheal cartilages to prepare tissue specimens; from tissue; host or cells: isolated guinea pig trachea (male Hartley)
T1 sequence (H0W1Z3 1-590): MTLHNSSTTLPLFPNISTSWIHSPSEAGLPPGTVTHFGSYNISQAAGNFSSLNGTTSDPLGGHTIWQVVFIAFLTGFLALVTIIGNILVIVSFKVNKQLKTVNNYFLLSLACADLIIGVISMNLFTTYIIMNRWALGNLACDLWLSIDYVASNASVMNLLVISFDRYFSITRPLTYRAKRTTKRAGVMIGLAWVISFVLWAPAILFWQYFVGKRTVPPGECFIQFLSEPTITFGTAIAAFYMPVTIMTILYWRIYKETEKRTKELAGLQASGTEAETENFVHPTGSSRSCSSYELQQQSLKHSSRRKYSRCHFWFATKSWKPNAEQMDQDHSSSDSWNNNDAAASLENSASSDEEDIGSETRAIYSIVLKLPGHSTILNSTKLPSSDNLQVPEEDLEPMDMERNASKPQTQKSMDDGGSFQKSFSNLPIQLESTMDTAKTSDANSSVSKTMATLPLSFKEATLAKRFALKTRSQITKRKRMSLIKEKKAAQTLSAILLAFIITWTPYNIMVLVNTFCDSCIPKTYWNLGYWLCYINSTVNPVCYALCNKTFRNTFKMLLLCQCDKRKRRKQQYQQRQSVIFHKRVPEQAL
Procedure: Muscarinic M3 Antagonistic Action in Isolated Guinea Pig Trachea
Male Hartley guinea pigs (350 to 600 g) were sacrificed by bleeding, and trachea was excised, and cut at every two tracheal cartilages to prepare tissue specimens. Each tissue specimen was kept warm at 37° C., suspended with a resting tension of 1 g in a 5-mL Magnus bath filled with a Krebs carbonate buffer containing indomethacin (1 μM) bubbled with 95% O2/5% CO2, and left for 60 minutes as a stabilization period. […] After the measurement, the tissue specimen was immediately washed, and left for 60 minutes as a stabilization period before the next contraction reaction, and the tissue specimen of which EC50 for the carbachol-induced contraction reaction was stabilized was considered as a control. Each test compound was applied 15 minutes before the addition of carbachol. The affinity (pA2) of the test compound was obtained by the Schild method (Arunlakshana, O. and Schild, H. O., Brit. J. Pharmacol., 1959, 14, 48-58).

muscarinic M2 receptor = target: T2, muscarinic M2 receptor (Cavia porcellus, UniProt H0VRN8); test: Muscarinic M2 antagonistic action in isolated guinea pig left atrium (carbachol-induced relaxation, Schild method); format: cell-based; conditions: compound applied 30 minutes before carbachol
T2 construct: left atria were excised to prepare tissue specimens; from tissue; host or cells: isolated guinea pig left atrium (male Hartley)
T2 sequence (H0VRN8 1-466): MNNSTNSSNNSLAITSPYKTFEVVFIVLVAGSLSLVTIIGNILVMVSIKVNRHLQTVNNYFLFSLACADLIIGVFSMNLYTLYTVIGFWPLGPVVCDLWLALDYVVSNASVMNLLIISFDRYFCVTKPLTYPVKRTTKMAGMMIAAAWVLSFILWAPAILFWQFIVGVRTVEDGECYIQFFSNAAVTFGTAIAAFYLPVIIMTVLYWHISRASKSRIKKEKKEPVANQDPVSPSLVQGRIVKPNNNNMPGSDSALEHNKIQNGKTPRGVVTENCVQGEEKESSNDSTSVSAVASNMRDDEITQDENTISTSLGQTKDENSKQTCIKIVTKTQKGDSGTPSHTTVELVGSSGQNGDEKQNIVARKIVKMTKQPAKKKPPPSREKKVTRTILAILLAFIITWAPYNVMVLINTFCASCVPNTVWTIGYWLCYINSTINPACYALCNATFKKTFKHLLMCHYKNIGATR
Procedure: Muscarinic M2 Antagonistic Action in Isolated Guinea Pig Left Atrium […] Each tissue specimen was kept warm at 37° C., suspended with a resting tension of 0.5 g in a 5-mL Magnus bath filled with a Krebs carbonate buffer bubbled with 95% O2/5% CO2. Then, contraction evoked by field electrical stimulation (4 Hz, 2 msec, 1.5×threshold potential) was measured. After a stabilization period of 60 minutes, carbachol-induced relaxation was isometrically measured and recorded by the cumulative method from 10^−8 M with an interval of 90 seconds for one concentration in an equal ratio of 3. After the measurement, the tissue specimen was immediately washed, and left for 45 minutes as a stabilization period before the next observation. The tissue specimen of which EC50 for the carbachol-induced relaxation was stabilized was considered as a control. Each test compound was applied 30 minutes before the addition of carbachol. The affinity (pA2) of the test compound was obtained in the same manner as in the case of the trachea.

[1] = isolated guinea pig trachea, read-out: pA2 Trachea M3 (converted)
[2] = isolated guinea pig left atrium, read-out: pA2 Left atrium M2 (converted)
[3] = pA2 Trachea M3, isolated guinea pig trachea
[4] = pA2 Left atrium M2, isolated guinea pig left atrium

| Compound | Kb (muscarinic M3 receptor; [3]) [nM] | Kb (muscarinic M2 receptor; [4]) [nM] | other results |
| --- | --- | --- | --- |
| COCC[n+]1ccn([C@H]2CC[C@@H](C(C(N)=O)(c3ccccc3)c3ccccc3)C2)c1C [Example 76, 3-((1S,3R)-3-(Carbamoyl(diphenyl)methyl)cyclopentyl)-1-(2-methoxyethyl)-2-methyl-3H-imidazol-1-ium para-toluenesulfonate] | – | – | Kb (muscarinic M3 receptor; [1]): 1.26 nM; Kb (muscarinic M2 receptor; [2]): 200 nM |
| NC(=O)C(c1ccccc1)(c1ccccc1)[C@@H]1CC[C@H](n2c[n+](Cc3ccccc3)cn2)C1 (relative stereo) [Example 71, 4-Benzyl-1-(cis-3-(carbamoyl(diphenyl)methyl)cyclopentyl)-1H-[1,2,4]triazol-4-ium bromide] | 0.794 | 39.8 | – |
| CN1[C@@H]2CC[C@H]1C[C@@H](OC(=O)C(CO)c1ccccc1)C2 (stereo partly shown) [Atropine, reference compound] | – | 2.51 | – |
| Cc1n([C@H]2CC[C@H](C(C(N)=O)(c3ccccc3)c3ccccc3)C2)cc[n+]1Cc1ccccc1 (single isomer, unassigned) [Example 98, 1-Benzyl-3-(trans-3-(carbamoyl(diphenyl)methyl)cyclopentyl)-2-methyl-3H-imidazol-1-ium bromide] | 0.398 | 15.8 | – |
| Cc1n([C@H]2CC[C@@H](C(C(N)=O)(c3ccccc3)c3ccccc3)C2)cc[n+]1C(F)F [Example 81, 3-((1S,3R)-3-(Carbamoyl(diphenyl)methyl)cyclopentyl)-1-difluoromethyl-2-methyl-3H-imidazol-1-ium bromide] | 1 | – | – |
| CC(=O)C[n+]1ccn([C@H]2CC[C@H](C(C(N)=O)(c3ccccc3)c3ccccc3)C2)c1C (relative stereo) [Example 86, 3-(trans-3-(Carbamoyl(diphenyl)methyl)cyclopentyl)-2-methyl-1-(2-oxopropyl)-3H-imidazol-1-ium bromide] | 1.26 | 1260 | – |
| CC1=[N+](C)CCN1[C@H]1CC[C@@H](C(C(N)=O)(c2ccccc2)c2ccccc2)C1 [Example 58, 3-((1S,3R)-3-(Carbamoyl(diphenyl)methyl)cyclopentyl)-1,2-dimethyl-4,5-dihydro-3H-imidazol-1-ium iodide] | 3.16 | 79.4 | – |
| CCOCC[n+]1ccn([C@H]2CC[C@@H](C(C(N)=O)(c3ccccc3)c3ccccc3)C2)c1C (relative stereo) [Example 25, 3-(cis-3-(Carbamoyl(diphenyl)methyl)cyclopentyl)-1-(2-ethoxy-ethyl)-2-methyl-3H-imidazol-1-ium bromide] | 1.58 | 25.1 | – |
| Cc1n([C@H]2CC[C@@H](C(C(N)=O)(c3ccccc3)c3ccccc3)C2)cc[n+]1CCCO (relative stereo) [Example 54, 3-(cis-3-(Carbamoyl(diphenyl)methyl)cyclopentyl)-1-(3-hydroxy-propyl)-2-methyl-3H-imidazol-1-ium bromide] | 1 | 31.6 | – |
| CC(=O)C[n+]1ccn([C@H]2CC[C@H](C(C#N)(c3ccccc3)c3ccccc3)C2)c1C (relative stereo) [Example 88, 3-(trans-3-(Cyano(diphenyl)methyl)cyclopentyl)-2-methyl-1-(2-oxopropyl)-3H-imidazol-1-ium bromide] | 1 | 251 | – |
| Cc1n([C@H]2CC[C@@H](C(C(N)=O)(c3ccccc3)c3ccccc3)C2)cc[n+]1CCC(C)C [Example 79, 3-((1S,3R)-3-(Carbamoyl(diphenyl)methyl)cyclopentyl)-2-methyl-1-(3-methyl-butyl)-3H-imidazol-1-ium bromide] | 0.631 | 63.1 | – |
| Cc1n([C@H]2CC[C@@H](C(C(N)=O)(c3ccccc3)c3ccccc3)C2)cc[n+]1C [Example 94, 3-((1S,3R)-3-(Carbamoyl(diphenyl)methyl)cyclopentyl)-1,2-dimethyl-3H-imidazol-1-ium para-toluenesulfonate] | – | – | Kb (muscarinic M3 receptor; [1]): 0.794 nM; Kb (muscarinic M2 receptor; [2]): 100 nM |
| CC#CC[n+]1ccn([C@H]2CC[C@@H](C(C(N)=O)(c3ccccc3)c3ccccc3)C2)c1C [Example 82] | 0.794 | 63.1 | – |
| COCC[n+]1ccn([C@@H]2CC[C@H](C(C(N)=O)(c3ccccc3)c3ccccc3)C2)c1C [Example 77, 3-((1R,3S)-3-(Carbamoyl(diphenyl)methyl)cyclopentyl)-1-(2-methoxyethyl)-2-methyl-3H-imidazol-1-ium para-toluenesulfonate] | – | – | Kb (muscarinic M3 receptor; [1]): 0.251 nM; Kb (muscarinic M2 receptor; [2]): 6.31 nM |
| Cc1n([C@@H]2CC[C@H](C(C(N)=O)(c3ccccc3)c3ccccc3)C2)cc[n+]1C(F)F [Example 92, 3-((1R,3S)-3-(Carbamoyl(diphenyl)methyl)cyclopentyl)-1-difluoromethyl-2-methyl-3H-imidazol-1-ium bromide] | 0.398 | 12.6 | – |
| Cc1n([C@H]2CC[C@H](C(C(N)=O)(c3ccccc3)c3ccccc3)C2)cc[n+]1C (relative stereo) [Example 66, 3-(trans-3-(Carbamoyl(diphenyl)methyl)cyclopentyl)-1,2-dimethyl-3H-imidazol-1-ium iodide] | 1.26 | 39.8 | – |
| CC(=O)OCCC[n+]1ccn([C@H]2CC[C@H](C(C(N)=O)(c3ccccc3)c3ccccc3)C2)c1C (relative stereo) [Example 75, 1-(3-Acetoxypropyl)-3-(trans-3-(carbamoyl(diphenyl)methyl)cyclopentyl)-2-methyl-3H-imidazol-1-ium bromide] | 0.501 | 158 | – |
| CC(=O)OCC[n+]1ccn([C@H]2CC[C@@H](C(C(N)=O)(c3ccccc3)c3ccccc3)C2)c1C (relative stereo) [Example 51, 3-(cis-3-(Carbamoyl(diphenyl)methyl)cyclopentyl)-1-(2-acetoxy-ethyl)-2-methyl-3H-imidazol-1-ium bromide] | 1 | 31.6 | – |
| Cc1n([C@H]2CC[C@H](C(C(N)=O)(c3ccccc3)c3ccccc3)C2)cc[n+]1Cc1ccccc1 (single isomer, unassigned) [Example 97, 1-Benzyl-3-(trans-3-(carbamoyl(diphenyl)methyl)cyclopentyl)-2-methyl-3H-imidazol-1-ium bromide] | 0.1 | 3.98 | – |
| CC(C)[N+]1(C)[C@@H]2CC[C@H]1C[C@@H](OC(=O)C(CO)c1ccccc1)C2 (stereo partly shown) [Ipratropium, reference compound] | 1 | 3.98 | – |
| COCC[n+]1cn([C@H]2CC[C@@H](C(C(N)=O)(c3ccccc3)c3ccccc3)C2)cn1 (relative stereo) [Example 72, 4-(cis-3-(Carbamoyl(diphenyl)methyl)cyclopentyl)-1-(2-methoxyethyl)-4H-[1,2,4]triazol-1-ium bromide] | 0.794 | 31.6 | – |
| COCC[n+]1ccn([C@H]2CC[C@H](C(C(N)=O)(c3ccccc3)c3ccccc3)C2)c1C (relative stereo) [Example 67, 3-(trans-3-(Carbamoyl(diphenyl)methyl)cyclopentyl)-1-(2-methoxyethyl)-2-methyl-3H-imidazol-1-ium bromide] | 1.26 | 79.4 | – |
| C=C(CC)[n+]1ccn([C@H]2CC[C@@H](C(C(N)=O)(c3ccccc3)c3ccccc3)C2)c1C.[Br-] [Example 78, 3-((1S,3R)-3-(Carbamoyl(diphenyl)methyl)cyclopentyl)-1-buten-2-yl-2-methyl-3H-imidazol-1-ium bromide] | – | – | pA2 Trachea M3 (muscarinic M3 receptor; isolated guinea pig trachea): 9.2; pA2 Left atrium M2 (muscarinic M2 receptor; isolated guinea pig left atrium): 7.9 |
| C[n+]1cn([C@H]2CC[C@@H](C(C(N)=O)(c3ccccc3)c3ccccc3)C2)cn1 (relative stereo) [Example 69, 4-(cis-3-(Carbamoyl(diphenyl)methyl)cyclopentyl)-1-methyl-4H-[1,2,4]triazol-1-ium iodide] | 0.794 | 25.1 | – |
